{
  "source": "paper PMC11110727",
  "about": "“Exploiting thiol-functionalized benzosiloxaboroles for achieving diverse substitution patterns – synthesis, characterization and biological evaluation of promising antibacterial agents” (RSC Medicinal Chemistry, 2024)",
  "key": {"[1]": {"test_system": "Human normal lung fibroblasts MRC-5", "assay": "MTT-based viability (cytotoxicity) assay", "conditions": "Homo sapiens, MRC5, 48 h", "procedure": "To evaluate the cytotoxic effect of the tested compounds, an MTT-based assay was performed. […] Moreover, based on available IC50 and MIC (for standard and clinical S. aureus MRSA strains) values, the selectivity index (SI) was calculated for several compounds as the IC50/MIC ratio (Table 5).[60]\nMRC-5 pd30 human fibroblasts (ECACC) were cultured in MEME, Minimum Essential Medium Eagle (Merck), supplemented with 10% fetal bovine serum (Merck), 2 mM L-glutamine, antibiotics (100 U mL^−1 penicillin, 100 μg mL^−1 streptomycin, Merck) and 1% non-essential amino acids (Merck). Cells were grown in 75 cm^2 cell culture flasks (Sarstedt), in a humidified atmosphere of CO2/air (5/95%) at 37 °C. MTT-based viability assay was conducted as described previously.[26] Optical densities were measured at 570 nm using a BioTek microplate reader. All measurements were carried out in three replicates and the results expressed as a percent of viable cells versus control cells. […] The selectivity index (SI) was calculated as [drawing 30] , in accordance with previously described protocols.[60]"}, "[2]": {"test_system": "S. aureus NMI 2541 K MRSA", "assay": "Antibacterial activity against clinical MRSA: MIC/MBC", "assay_type": "cell-based", "conditions": "Staphylococcus aureus, NMI 2541 K MRSA", "procedure": "(§1) Direct antimicrobial activity was determined against the following standard strains: (1) Gram-positive cocci: methicillin-sensitive Staphylococcus aureus ATCC 6538P (MSSA), methicillin-resistant S. aureus subsp. aureus ATCC 43300 (MRSA), S. epidermidis ATCC 12228, Enterococcus faecium ATCC 6057, E. faecalis ATCC 29212, Bacillus subtilis ATCC 6633; (2) Gram-negative bacteria from Enterobacteriales order: Klebsiella pneumoniae ATCC 13883, Escherichia coli ATCC 25922, Enterobacter cloacae DSM 6234, Proteus mirabilis ATCC 12453, Serratia marcescens ATCC 13880; (3) Gram-negative non-fermentative rods: Acinetobacter baumannii ATCC 19606, Pseudomonas aeruginosa ATCC 27853, Stenotrophomonas maltophilia ATCC 12714, S. maltophilia ATCC 13637, Burkholderia cepacia ATCC 25416, Bordetella bronchiseptica ATCC 4617; (4) yeasts: Candida albicans ATCC 90028, C. krusei ATCC 6258, C. parapsilosis ATCC 22019, C. tropicalis (Castellani) Berkhout ATCC 750, C. tropicalis IBA 171, C. guilliermondii IBA 155, and Saccharomyces cerevisiae ATCC 9763. Moreover, 5 clinical strains of methicillin-resistant S. aureus were also included: NMI 664 K, NMI 1576 K, NMI 1712 K, NMI 1991 K, and NMI 2541 K. All strains were stored at −80 °C. Prior to testing, each bacterial strain was subcultured twice on tryptic soy agar TSA (bioMerieux) medium and yeast strains on Sabouraud dextrose agar (bioMerieux) for 24–48 h at 30 °C to ensure viability. The antimicrobial activity was evaluated as previously described[26] by the disc-diffusion method and the MIC determination assays according to the EUCAST (ref. [71] and [72]) and CLSI (ref. [53] and [73]) recommendations. Assessment of bactericidal (MBC) and fungicidal (MFC) activities was performed according to the CLSI recommendations.[54,74] The following reference agents were used: fluconazole (in the case of fungi), linezolid (for Gram-positive bacteria), and nitrofurantoin (for Gram-negative rods). The new benzosiloxaboroles were dissolved in DMSO (Sigma)."}, "S. aureus NMI 664 K MRSA": {"test_system": "S. aureus NMI 664 K MRSA", "assay": "Antibacterial activity against clinical MRSA: MIC/MBC", "assay_type": "cell-based", "conditions": "Staphylococcus aureus, NMI 664 K MRSA", "procedure": "as §1"}, "[3]": {"test_system": "S. aureus NMI 1712 K MRSA", "assay": "Antibacterial activity against clinical MRSA: MIC/MBC", "assay_type": "cell-based", "conditions": "Staphylococcus aureus, NMI 1712 K MRSA", "procedure": "as §1"}, "[4]": {"test_system": "S. aureus NMI 1991 K MRSA", "assay": "Antibacterial activity against clinical MRSA: MIC/MBC", "assay_type": "cell-based", "conditions": "Staphylococcus aureus, NMI 1991 K MRSA", "procedure": "as §1"}, "[5]": {"test_system": "S. aureus NMI 1576 K MRSA", "assay": "Antibacterial activity against clinical MRSA: MIC/MBC", "assay_type": "cell-based", "conditions": "Staphylococcus aureus, NMI 1576 K MRSA", "procedure": "as §1"}, "[6]": {"test_system": "S. epidermidis ATCC 12228", "assay": "Antibacterial activity: MIC/MBC determination and disc-diffusion", "assay_type": "cell-based", "conditions": "Staphylococcus epidermidis, ATCC12228, S. epidermidis ATCC 12228", "procedure": "as §1"}, "[7]": {"test_system": "S. aureus ATCC 43300 MRSA", "assay": "Antibacterial activity: MIC/MBC determination and disc-diffusion", "assay_type": "cell-based", "conditions": "Staphylococcus aureus, S. aureus ATCC 43300 MRSA", "procedure": "as §1"}, "E. faecalis ATCC 29212": {"test_system": "E. faecalis ATCC 29212", "assay": "Antibacterial activity: MIC/MBC determination and disc-diffusion", "assay_type": "cell-based", "conditions": "Enterococcus faecalis, ATCC29212, E. faecalis ATCC 29212", "procedure": "as §1"}, "E. faecium ATCC 6057": {"test_system": "E. faecium ATCC 6057", "assay": "Antibacterial activity: MIC/MBC determination and disc-diffusion", "assay_type": "cell-based", "conditions": "Enterococcus faecium, ATCC6057, E. faecium ATCC 6057", "procedure": "as §1"}, "S. aureus ATCC 6538P": {"test_system": "S. aureus ATCC 6538P", "assay": "Antibacterial activity: MIC/MBC determination and disc-diffusion", "assay_type": "cell-based, Staphylococcus aureus", "conditions": "S. aureus ATCC 6538P", "procedure": "as §1"}, "S. aureus MRSA LeuRS": {"biological_target": "T1, S. aureus MRSA LeuRS (Staphylococcus aureus, UniProt P67513)", "T1 construct": "The LeuRS gene from MRSA (PW-71) was amplified by PCR; made in house; host or cells: E. coli BL21(DE3)pLys", "T1 sequence (P67513 whole entry)": "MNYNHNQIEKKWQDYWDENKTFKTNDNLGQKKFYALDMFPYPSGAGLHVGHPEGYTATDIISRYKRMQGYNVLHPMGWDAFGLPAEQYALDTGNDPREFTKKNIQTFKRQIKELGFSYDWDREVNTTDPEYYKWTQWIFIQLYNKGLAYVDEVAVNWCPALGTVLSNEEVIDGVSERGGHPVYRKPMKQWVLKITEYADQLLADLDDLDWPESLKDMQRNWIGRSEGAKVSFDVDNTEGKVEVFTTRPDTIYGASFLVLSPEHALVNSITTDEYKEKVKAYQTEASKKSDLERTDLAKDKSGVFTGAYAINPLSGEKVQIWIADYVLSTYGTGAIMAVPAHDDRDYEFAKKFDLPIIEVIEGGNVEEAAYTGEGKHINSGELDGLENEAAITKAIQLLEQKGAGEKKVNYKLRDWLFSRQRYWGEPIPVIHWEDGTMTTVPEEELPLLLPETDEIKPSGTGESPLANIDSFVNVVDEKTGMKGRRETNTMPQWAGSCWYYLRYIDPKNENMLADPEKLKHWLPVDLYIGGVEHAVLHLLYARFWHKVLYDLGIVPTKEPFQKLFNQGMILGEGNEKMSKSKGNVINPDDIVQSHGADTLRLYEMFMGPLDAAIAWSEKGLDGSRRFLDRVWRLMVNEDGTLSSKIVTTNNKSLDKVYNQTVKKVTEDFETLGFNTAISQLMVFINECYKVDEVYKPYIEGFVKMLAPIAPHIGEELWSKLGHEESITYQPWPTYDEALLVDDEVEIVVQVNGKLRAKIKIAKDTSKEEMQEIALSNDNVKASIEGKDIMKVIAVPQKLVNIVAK", "assay": "In vitro aminoacylation (enzyme inhibition) assay", "assay_type": "biochemical", "conditions": "read-out: residual activity of S. aureus MRSA LeuRS", "procedure": "We have undertaken research devoted to determining the most probable mechanism of antibacterial action. […] Considering structural similarity to benzoxaboroles we assumed that benzosiloxaboroles are active through this mechanism. Our working hypothesis was supported by the fact that benzosiloxaboroles are rather bacteriostatic than bactericidal,[26,27] which is consistent with the specificity of the OBORT mechanism. The enzyme inhibition assay was performed for compound 20 as it features high activity against S. aureus MRSA strains and the respective favorable SI = 19.5 (Table 5). […] We obtained S. aureus MRSA LeuRS in the E. coli expression system. From 400 mL culture, approximately 20 mg of 6× His tagged LeuRS (with a molecular mass of 92.3 kDa) was purified to more than 90% homogeneity, which was confirmed by sodium dodecylsulfate-polyacrylamide gel electrophoresis (SDS-PAGE; Fig. S2, ESI ^†). Next, we used an in vitro aminoacylation assay to investigate the ability of 20 to inhibit S. aureus MRSA LeuRS activity consistent with affecting the transfer of the ^14C-radiolabeled leucine to a total tRNA. […] (residual activity 30.8% at 25 μM).\nThe LeuRS gene from MRSA (PW-71) was amplified by PCR using the following primers: 5′-[…]-3′ and 5′-[…]-3′. The amplified leuRS was digested with BamHI and NotI and ligated into pETDuet-1 vector (Novagen) which carries an N-terminal His tag. After sequencing, the pETDuet1-leuRS plasmid was transformed into E. coli BL21(DE3)pLys cells, which were then grown overnight in 20 mL of Luria–Bertani (LB) medium containing 100 μg mL^−1 ampicillin and 30 μg mL^−1 chloramphenicol. Then the overnight culture was inoculated into 400 mL of Super Broth medium containing ampicillin and chloramphenicol at the same concentration, and the cells were grown until the OD600 reached 0.6. […] The protein concentration in the final solution was 2.86 mg mL^−1 (determined by the Bradford method and bovine serum albumin as a standard).[78] […]"}, "[8]": {"conditions": "read-out: MBC (first MBC where Eagle effect)"}},
  "data": [
    {"smiles": "CC(=O)NC[C@H]1CN(c2ccc(N3CCOCC3)c(F)c2)C(=O)O1", "note": "[LIN, linezolid, reference compound]", "values": [
      {"measurement": "IC50", "setting": "[1]", "result": "> 400", "unit": "µg/mL"},
      {"measurement": "MBC", "setting": "[2]; [8]", "result": "> 128", "unit": "µg/mL"},
      {"measurement": "MIC", "setting": "[2]; read-out: MIC", "result": 1, "unit": "µg/mL"},
      {"measurement": "MBC", "setting": "S. aureus NMI 664 K MRSA; [8]", "result": "> 128", "unit": "µg/mL"},
      {"measurement": "MIC", "setting": "S. aureus NMI 664 K MRSA; read-out: MIC", "result": 1, "unit": "µg/mL"},
      {"measurement": "MBC", "setting": "[3]; [8]", "result": "> 128", "unit": "µg/mL"},
      {"measurement": "MIC", "setting": "[3]; read-out: MIC", "result": 1, "unit": "µg/mL"},
      {"measurement": "MBC", "setting": "[4]; [8]", "result": "> 128", "unit": "µg/mL"},
      {"measurement": "MIC", "setting": "[4]; read-out: MIC", "result": 1, "unit": "µg/mL"},
      {"measurement": "MBC", "setting": "[5]; [8]", "result": "> 128", "unit": "µg/mL"},
      {"measurement": "MIC", "setting": "[5]; read-out: MIC", "result": 1, "unit": "µg/mL"},
      {"measurement": "MBC", "setting": "[6]", "result": "> 128", "unit": "µg/mL"},
      {"measurement": "MIC", "setting": "[6]; read-out: MIC", "result": 1, "unit": "µg/mL"},
      {"measurement": "MBC", "setting": "[7]; [8]", "result": "> 128", "unit": "µg/mL"},
      {"measurement": "MIC", "setting": "[7]; read-out: MIC", "result": 2, "unit": "µg/mL"},
      {"measurement": "MBC", "setting": "E. faecalis ATCC 29212", "result": "> 128", "unit": "µg/mL"},
      {"measurement": "MIC", "setting": "E. faecalis ATCC 29212; read-out: MIC", "result": 2, "unit": "µg/mL"},
      {"measurement": "MBC", "setting": "E. faecium ATCC 6057", "result": "> 128", "unit": "µg/mL"},
      {"measurement": "MIC", "setting": "E. faecium ATCC 6057; read-out: MIC", "result": 2, "unit": "µg/mL"},
      {"measurement": "diameter of inhibition zone", "setting": "S. aureus ATCC 6538P; disc-diffusion, — = zone not observed", "result": 25, "unit": "mm"},
      {"measurement": "MBC", "setting": "S. aureus ATCC 6538P; Staphylococcus aureus, ATCC6538P, read-out: MBC (first MBC where Eagle effect)", "result": "> 128", "unit": "µg/mL"},
      {"measurement": "MIC", "setting": "S. aureus ATCC 6538P; Staphylococcus aureus, ATCC6538P, read-out: MIC", "result": 1, "unit": "µg/mL"}
    ]},
    {"smiles": "Nc1ccc(S(=O)(=O)Nc2ccc3c(c2)B(O)OC3)cc1", "note": "[PT662, reference compound]", "values": [
      {"measurement": "remaining activity at 25 µM", "setting": "S. aureus MRSA LeuRS", "result": 30.8, "unit": "%"}
    ]}
  ]
}
